# According to ChEMBL document CHEMBL2429768, “Eco-friendly synthesis and antimicrobial activities of substituted-5-(1H-indol-3-yl)methylene)-2,2-dimethyl-1,3-dioxane-4,6-dione derivatives” (2013):
# Assays:
# Type in all cases: functional
# Aspergillus niger [1] = assay: Antifungal activity against Aspergillus niger at 50 ug/ml after 72 hrs by agar well diffusion method; settings: read-out: DIZ
# Fusarium oxysporum [2] = assay: Antifungal activity against Fusarium oxysporum at 500 ug/ml after 72 hrs by agar well diffusion method; settings: read-out: DIZ
# Fusarium oxysporum [3] = assay: Antifungal activity against Fusarium oxysporum at 300 ug/ml after 72 hrs by agar well diffusion method; settings: read-out: DIZ
# Fusarium oxysporum [4] = assay: Antifungal activity against Fusarium oxysporum at 200 ug/ml after 72 hrs by agar well diffusion method; settings: read-out: DIZ
# Fusarium oxysporum [5] = assay: Antifungal activity against Fusarium oxysporum at 100 ug/ml after 72 hrs by agar well diffusion method; settings: read-out: DIZ
# Fusarium oxysporum [6] = assay: Antifungal activity against Fusarium oxysporum at 50 ug/ml after 72 hrs by agar well diffusion method; settings: read-out: DIZ
# Rhizoctonia solani [7] = assay: Antifungal activity against Rhizoctonia solani at 500 ug/ml after 72 hrs by agar well diffusion method; settings: read-out: DIZ
# Rhizoctonia solani [8] = assay: Antifungal activity against Rhizoctonia solani at 300 ug/ml after 72 hrs by agar well diffusion method; settings: read-out: DIZ
# Rhizoctonia solani [9] = assay: Antifungal activity against Rhizoctonia solani at 200 ug/ml after 72 hrs by agar well diffusion method; settings: read-out: DIZ
# Rhizoctonia solani [10] = assay: Antifungal activity against Rhizoctonia solani at 100 ug/ml after 72 hrs by agar well diffusion method; settings: read-out: DIZ
# Rhizoctonia solani [11] = assay: Antifungal activity against Rhizoctonia solani at 50 ug/ml after 72 hrs by agar well diffusion method; settings: read-out: DIZ
# Bacillus subtilis [12] = assay: Antibacterial activity against Bacillus subtilis at 500 ug/ml after 24 hrs by agar well diffusion method; settings: read-out: DIZ
# Bacillus subtilis [13] = assay: Antibacterial activity against Bacillus subtilis at 300 ug/ml after 24 hrs by agar well diffusion method; settings: read-out: DIZ
# Bacillus subtilis [14] = assay: Antibacterial activity against Bacillus subtilis at 200 ug/ml after 24 hrs by agar well diffusion method; settings: read-out: DIZ
# Bacillus subtilis [15] = assay: Antibacterial activity against Bacillus subtilis at 100 ug/ml after 24 hrs by agar well diffusion method; settings: read-out: DIZ
# Bacillus subtilis [16] = assay: Antibacterial activity against Bacillus subtilis at 50 ug/ml after 24 hrs by agar well diffusion method; settings: read-out: DIZ
# Staphylococcus aureus [17] = assay: Antibacterial activity against Staphylococcus aureus ATCC 6538 at 500 ug/ml after 24 hrs by agar well diffusion method; settings: ATCC 6538, 24 h, read-out: DIZ
# Staphylococcus aureus [18] = assay: Antibacterial activity against Staphylococcus aureus ATCC 6538 at 300 ug/ml after 24 hrs by agar well diffusion method; settings: ATCC 6538, 24 h, read-out: DIZ
# Staphylococcus aureus [19] = assay: Antibacterial activity against Staphylococcus aureus ATCC 6538 at 200 ug/ml after 24 hrs by agar well diffusion method; settings: ATCC 6538, 24 h, read-out: DIZ
# Staphylococcus aureus [20] = assay: Antibacterial activity against Staphylococcus aureus ATCC 6538 at 100 ug/ml after 24 hrs by agar well diffusion method; settings: ATCC 6538, 24 h, read-out: DIZ
# Escherichia coli [21] = assay: Antibacterial activity against Escherichia coli ATCC 8739 at 300 ug/ml after 24 hrs by agar well diffusion method; settings: ATCC 8739, 24 h, read-out: DIZ
# Escherichia coli [22] = assay: Antibacterial activity against Escherichia coli ATCC 8739 at 200 ug/ml after 24 hrs by agar well diffusion method; settings: ATCC 8739, 24 h, read-out: DIZ
# Escherichia coli [23] = assay: Antibacterial activity against Escherichia coli ATCC 8739 at 100 ug/ml after 24 hrs by agar well diffusion method; settings: ATCC 8739, 24 h, read-out: DIZ
# Escherichia coli [24] = assay: Antibacterial activity against Escherichia coli ATCC 8739 at 50 ug/ml after 24 hrs by agar well diffusion method; settings: ATCC 8739, 24 h, read-out: DIZ
# Klebsiella pneumoniae [25] = assay: Antibacterial activity against Klebsiella pneumoniae at 500 ug/ml after 24 hrs by agar well diffusion method; settings: read-out: DIZ
# Klebsiella pneumoniae [26] = assay: Antibacterial activity against Klebsiella pneumoniae at 300 ug/ml after 24 hrs by agar well diffusion method; settings: read-out: DIZ
# Klebsiella pneumoniae [27] = assay: Antibacterial activity against Klebsiella pneumoniae at 200 ug/ml after 24 hrs by agar well diffusion method; settings: read-out: DIZ
# Klebsiella pneumoniae [28] = assay: Antibacterial activity against Klebsiella pneumoniae at 50 ug/ml after 24 hrs by agar well diffusion method; settings: read-out: DIZ
# Escherichia coli [29] = assay: Antibacterial activity against Escherichia coli ATCC 8739 at 500 ug/ml after 24 hrs by agar well diffusion method; settings: ATCC 8739, 24 h, read-out: DIZ
# Klebsiella pneumoniae [30] = assay: Antibacterial activity against Klebsiella pneumoniae at 100 ug/ml after 24 hrs by agar well diffusion method; settings: read-out: DIZ
# Staphylococcus aureus [31] = assay: Antibacterial activity against Staphylococcus aureus ATCC 6538 at 50 ug/ml after 24 hrs by agar well diffusion method; settings: ATCC 6538, 24 h, read-out: DIZ
# Aspergillus flavus [32] = assay: Antifungal activity against Aspergillus flavus at 50 ug/ml after 72 hrs by agar well diffusion method; settings: read-out: DIZ
# Aspergillus flavus [33] = assay: Antifungal activity against Aspergillus flavus at 100 ug/ml after 72 hrs by agar well diffusion method; settings: read-out: DIZ
# Aspergillus flavus [34] = assay: Antifungal activity against Aspergillus flavus after 72 hrs by agar well diffusion method
# Aspergillus niger [35] = assay: Antifungal activity against Aspergillus niger after 72 hrs by agar well diffusion method
# Fusarium oxysporum [36] = assay: Antifungal activity against Fusarium oxysporum after 72 hrs by agar well diffusion method
# Rhizoctonia solani [37] = assay: Antifungal activity against Rhizoctonia solani after 72 hrs by agar well diffusion method
# Bacillus subtilis [38] = assay: Antibacterial activity against Bacillus subtilis after 24 hrs by agar well diffusion method
# Staphylococcus aureus [39] = assay: Antibacterial activity against Staphylococcus aureus ATCC 6538 after 24 hrs by agar well diffusion method; settings: ATCC 6538, 24 h
# Escherichia coli [40] = assay: Antibacterial activity against Escherichia coli ATCC 8739 after 24 hrs by agar well diffusion method; settings: ATCC 8739, 24 h
# Klebsiella pneumoniae [41] = assay: Antibacterial activity against Klebsiella pneumoniae after 24 hrs by agar well diffusion method
# Aspergillus flavus [42] = assay: Antifungal activity against Aspergillus flavus at 500 ug/ml after 72 hrs by agar well diffusion method; settings: read-out: DIZ
# Aspergillus flavus [43] = assay: Antifungal activity against Aspergillus flavus at 300 ug/ml after 72 hrs by agar well diffusion method; settings: read-out: DIZ
# Aspergillus flavus [44] = assay: Antifungal activity against Aspergillus flavus at 200 ug/ml after 72 hrs by agar well diffusion method; settings: read-out: DIZ
# Aspergillus niger [45] = assay: Antifungal activity against Aspergillus niger at 500 ug/ml after 72 hrs by agar well diffusion method; settings: read-out: DIZ
# Aspergillus niger [46] = assay: Antifungal activity against Aspergillus niger at 300 ug/ml after 72 hrs by agar well diffusion method; settings: read-out: DIZ
# Aspergillus niger [47] = assay: Antifungal activity against Aspergillus niger at 200 ug/ml after 72 hrs by agar well diffusion method; settings: read-out: DIZ
# Aspergillus niger [48] = assay: Antifungal activity against Aspergillus niger at 100 ug/ml after 72 hrs by agar well diffusion method; settings: read-out: DIZ
smiles,measurement,setting,value
COc1ccc2c(c1)c(C=C1C(=O)OC(C)(C)OC1=O)cn2C,zone of inhibition at 50 µg/mL,Aspergillus niger [1],6 mm
same,zone of inhibition at 500 µg/mL,Fusarium oxysporum [2],29 mm
same,zone of inhibition at 300 µg/mL,Fusarium oxysporum [3],21 mm
same,zone of inhibition at 200 µg/mL,Fusarium oxysporum [4],16 mm
same,zone of inhibition at 100 µg/mL,Fusarium oxysporum [5],12 mm
same,zone of inhibition at 50 µg/mL,Fusarium oxysporum [6],7 mm
same,zone of inhibition at 500 µg/mL,Rhizoctonia solani [7],29 mm
same,zone of inhibition at 300 µg/mL,Rhizoctonia solani [8],21 mm
same,zone of inhibition at 200 µg/mL,Rhizoctonia solani [9],16 mm
same,zone of inhibition at 100 µg/mL,Rhizoctonia solani [10],12 mm
same,zone of inhibition at 50 µg/mL,Rhizoctonia solani [11],7 mm
same,zone of inhibition at 500 µg/mL,Bacillus subtilis [12],22 mm
same,zone of inhibition at 300 µg/mL,Bacillus subtilis [13],14 mm
same,zone of inhibition at 200 µg/mL,Bacillus subtilis [14],11 mm
same,zone of inhibition at 100 µg/mL,Bacillus subtilis [15],9 mm
same,zone of inhibition at 50 µg/mL,Bacillus subtilis [16],4 mm
same,zone of inhibition at 500 µg/mL,Staphylococcus aureus [17],26 mm
same,zone of inhibition at 300 µg/mL,Staphylococcus aureus [18],16 mm
same,zone of inhibition at 200 µg/mL,Staphylococcus aureus [19],13 mm
same,zone of inhibition at 100 µg/mL,Staphylococcus aureus [20],10 mm
same,zone of inhibition at 300 µg/mL,Escherichia coli [21],20 mm
same,zone of inhibition at 200 µg/mL,Escherichia coli [22],15 mm
same,zone of inhibition at 100 µg/mL,Escherichia coli [23],13 mm
same,zone of inhibition at 50 µg/mL,Escherichia coli [24],8 mm
same,zone of inhibition at 500 µg/mL,Klebsiella pneumoniae [25],32 mm
same,zone of inhibition at 300 µg/mL,Klebsiella pneumoniae [26],23 mm
same,zone of inhibition at 200 µg/mL,Klebsiella pneumoniae [27],18 mm
same,zone of inhibition at 50 µg/mL,Klebsiella pneumoniae [28],9 mm
same,zone of inhibition at 500 µg/mL,Escherichia coli [29],31 mm
same,zone of inhibition at 100 µg/mL,Klebsiella pneumoniae [30],14 mm
same,zone of inhibition at 50 µg/mL,Staphylococcus aureus [31],6 mm
same,zone of inhibition at 50 µg/mL,Aspergillus flavus [32],4 mm
same,zone of inhibition at 100 µg/mL,Aspergillus flavus [33],9 mm
same,MIC,Aspergillus flavus [34],40 µg/mL
same,MIC,Aspergillus niger [35],40 µg/mL
same,MIC,Fusarium oxysporum [36],35 µg/mL
same,MIC,Rhizoctonia solani [37],35 µg/mL
same,MIC,Bacillus subtilis [38],30 µg/mL
same,MIC,Staphylococcus aureus [39],25 µg/mL
same,MIC,Escherichia coli [40],15 µg/mL
same,MIC,Klebsiella pneumoniae [41],15 µg/mL
same,zone of inhibition at 500 µg/mL,Aspergillus flavus [42],23 mm
same,zone of inhibition at 300 µg/mL,Aspergillus flavus [43],15 mm
same,zone of inhibition at 200 µg/mL,Aspergillus flavus [44],12 mm
same,zone of inhibition at 500 µg/mL,Aspergillus niger [45],25 mm
same,zone of inhibition at 300 µg/mL,Aspergillus niger [46],18 mm
same,zone of inhibition at 200 µg/mL,Aspergillus niger [47],14 mm
same,zone of inhibition at 100 µg/mL,Aspergillus niger [48],10 mm
